Laboratory results from the OPERA property sets (Mansouri et al. 2018).
In brackets after ≈: the same amount, converted by molar mass.

Conditions: 25 °C

| SMILES | solubility |
| --- | --- |
| Sc1ccccc1 | 7.58 mM (≈ 835 µg/mL) |
| ICCI | 0.606 mM (≈ 171 µg/mL) |
| Cc1c2ccccc2cc2c1cc(F)c1ccccc12 | 4.9e-05 mM (≈ 0.0127 µg/mL) |
| CCS | 166 mM (≈ 10300 µg/mL) |
| CC1CCOC1 (stereo unspecified) | 1230 mM (≈ 106000 µg/mL) |
| Brc1cc(Br)cc(Br)c1 | 0.00251 mM (≈ 0.79 µg/mL) |
| CCCC(C)(C)CO | 33.1 mM (≈ 3850 µg/mL) |
| Cc1ccc(Br)cc1 | 0.643 mM (≈ 110 µg/mL) |
| Brc1ccccc1Br | 0.316 mM (≈ 74.6 µg/mL) |
| CCc1ccccc1Br | 0.214 mM (≈ 39.5 µg/mL) |

Second part, the compound after the results:

| solubility | SMILES |
| --- | --- |
| 79.4 mM (≈ 6680 µg/mL) | C=COC1CC1 |
| 235 mM (≈ 20700 µg/mL) | CC(C)OC=O |
| 46.8 mM (≈ 8810 µg/mL) | CCOC(=O)CCCC(=O)OCC |
| 0.0646 mM (≈ 12.9 µg/mL) | CC(C)c1ccccc1Br |
| 186 mM (≈ 16400 µg/mL) | CCC(C)OC (stereo unspecified) |
| 427 mM (≈ 43600 µg/mL) | CC(C)[C@@H](C)CO |
